Read-outs that look alike come from different tables or passages of the source. Some results are limits rather than exact numbers.

One test deals with HME. Put plainly: Cell growth inhibition, crystal violet cell viability assay (control cells). The test is classed as cell-based. The settings on record: read-out: Cell Growth Inhibition GI50, HME. On the procedure:
(§1) Comparative analysis of the cytotoxic effect of largazole in human cancer cell lines HCT116, SW480 and MDA-MB231. HME were used as control. 8,000 cells were plated in 96-well plates where rows 1 and 10 were treated with DMSO, row 2 had no cells to establish background levels, rows 3-9 contained decreasing concentrations of compound. Cells were incubated with largazole for 48 hours, followed by staining with crystal violet dye. The absorbance at 588 nm was measured using a Tecan Sail re II plate reader. Experiments were performed in replicates of six, and concentration-response curves were generated by nonlinear least square regression analysis of the data using GraphPad Prism (San Diego, Calif.). The growth inhibition (GI50) for each compound was defined as a concentration of drug leading to a 50% reduction in A588 compared with controls
SW480, HCT116, and MDA-MB231 cell lines were purchased from the American Tissue Culture Collection. SW480 and MDA-MB231 cells were grown in Dulbecco's modified Eagle's medium supplemented with 10% fetal calf serum at 37° C. in a humidified 5% CO2 atmosphere. The HCT116 cell line was cultured in McCoy's 5a medium [ATCC; Cat. No. 30-2007] with 1.5 mM L-glutamine and 10% fetal bovine serum [ATCC; Cat. No. 30-2020]. […]
8,000 cells from different cancers were plated in flat-bottomed 96-well microplates. […] Cell viability was determined 48 hours later using crystal violet dye (Sigma-Aldrich), which was solubilized in ethanol, and absorbance was measured at 588 nm using a Tecan Sail re II plate reader. […]
8,000 cells from different cancer or nontransformed cells were plated in flat-bottomed 96-well microplates. […] Cell viability was determined 48 hours later using crystal violet dye (Sigma-Aldrich), which was solubilized in ethanol, and absorbance was measured at 588 nm using a Tecan Safire II plate reader. […]

The next test deals with HCT-116. Put plainly: Cell growth inhibition, crystal violet cell viability assay. In kind it is cell-based. The settings on record: Homo sapiens, read-out: Cell Growth Inhibition GI50, HCT-116. On the procedure:
as §1
(§2) SW480, HCT116, and MDA-MB231 cell lines were purchased from the American Tissue Culture Collection. SW480 and MDA-MB231 cells were grown in Dulbecco's modified Eagle's medium supplemented with 10% fetal calf serum at 37° C. in a humidified 5% CO2 atmosphere. The HCT116 cell line was cultured in McCoy's 5a medium [ATCC; Cat. No. 30-2007] with 1.5 mM L-glutamine and 10% fetal bovine serum [ATCC; Cat. No. 30-2020]. HME cells (Clonetics, San Diego, Calif.; donor 4144) were cultured serum-free in Clonetics' recommended medium and supplements (52 μg/ml bovine pituitary extract, 0.5 μg/ml hydrocortisone, 0.01 μg/ml human epidermal growth factor, 5 μg/ml insulin, 50 μg/ml gentamicin and 50 ng/ml amphotericin-B).
(§3) 8,000 cells from different cancers were plated in flat-bottomed 96-well microplates. (Background control wells lacking the cells but containing the same volume of media were included in each assay plate). 24 hours after seeding, new media was added. To assess the in vitro cytotoxicity, each compound was dissolved in DMSO and prepared immediately before the experiments and was diluted into complete medium before addition to cell cultures. Test compounds were then added to the culture medium for designated decreasing concentrations (600 nM to 10 nM). Cell viability was determined 48 hours later using crystal violet dye (Sigma-Aldrich), which was solubilized in ethanol, and absorbance was measured at 588 nm using a Tecan Sail re II plate reader. Experiments were performed in replicates of six, and concentration-response curves were generated by nonlinear least square regression analysis of the data using GraphPad Prism (San Diego, Calif.). The growth inhibition (GI50) for each compound was defined as a concentration of drug leading to a 50% reduction in A588 compared with controls.
as §3, with “cancer or nontransformed cells” for “cancers”, “Safire” for “Sail re”, “concentration—response” for “concentration-response”

In the next test the test system is MDA-MB231. The test is described as above. In kind it is cell-based. The settings on record: Homo sapiens, read-out: Cell Growth Inhibition GI50, MDA-MB231. On the procedure: as §1, §2, §3
as §3, with “cancer or nontransformed cells” for “cancers”, “Safire” for “Sail re”, “concentration—response” for “concentration-response”

The subject of test [1] is HCT116 cells. Put plainly: DNA microarray gene expression profiles. In kind it is cell-based, human. The conditions noted are these: SAHA (200 μM), Largazole (20 nM), Example 1 (20 nM). On the procedure: FIG. 9A illustrates hierarchical clustering and heatmaps of changes in gene expression profiles in the HCT116 cells with indicated treatment. FIGS. 9B and 9C illustrate Venn diagrams showing unique and shared gene sets whose expression levels changed by more than 2 fold upon exposure to the indicated treatment at 6 hr (FIG. 9B) and 24 hr (FIG. 9C).
Expression values files for each sample were generated using the Robust Multichip Average (RMA) algorithm. Differential expression was determined using the R software package limma to generate linear models and empirical Bayesian statistics. Genes were considered differentially expressed if the P value, adjusted for multiple testing using the Benjamini and Hochberg method, was ≦5% and the log-2 fold change was […].
HCT116 cells were seeded in triplicate at approximately 60% confluency. […] Cells were incubated for 6 or 24 hours followed by a wash with phosphate-buffered saline. Total RNA was extracted using a RNeasy Mini RNA extraction kit (QIAGEN Inc., Valencia, Calif.) immediately after wash. Total RNA concentration was determined using a Lambda 800 UV/VIS spectrometer (PerkinElmer, Waltham, Mass.) and processed for labeling hybridization, wash, and scan at University of Colorado-Denver Health Sciences Center. Three GeneChip® Human Gene 1.0 ST (Affymetrix, Santa Clara, Calif.) arrays were used for each of the time points, cell types, and treatments for a total of 24 arrays. Expression values files for each sample were generated using the Robust Multichip Average (RMA) algorithm. Differential expression was determined using the R software package limma to generate linear models and empirical Bayesian statistics. Genes were considered differentially expressed if the P value, adjusted for multiple testing using the Benjamini and Hochberg method, was ≦5% and the log-2 fold change was […]. GeneSpring GX (Agilent, Santa Clara, Calif.) software was used for hierarchical clustering and generating heatmaps.

Test [2] concerns acetylated histone H3 in HCT116 cells. Put plainly: Western blot of histone H3 hyperacetylation. The conditions noted are these: 8 hours, concentrations ranging from 1/μM to 100 nM. The test is classed as cell-based, human.
Procedure: Cell extracts were separated via SDS-PAGE electrophoresis and the resulting bands were detected utilizing anti-acetyl-H3 antibodies. DMSO-treated cells serve as a negative control, while the expression of GAPDH was used to show equal loading. […] Cells were treated with the indicated compound for 8 hours with concentrations ranging from 1/μM to 100 nM and immunoblotted with anti-acetylhistone H3 antibody.
For western blot analysis, total protein extracts were prepared by lysing cells in lysis buffer (50 mM Tris-Cl [pH 8.0], 5 mM EDTA, 150 mM NaCl, 1% NP-40, 0.1% SDS, and 1 mM phenylmethylsulfonyl fluoride). 50 μg of total soluble proteins were separated by SDS-PAGE. Proteins were transferred to nitrocellulose membrane and the membrane was blocked for 1 hour with 4% nonfat milk, followed by overnight incubation at 4° C. with primary antibodies against acetylated histone H3 (1:1000, Upstate, #06-599), Ezrin (1:10000, Sigma, E-8897), Glyceraldehyde 3-phosphate dehydrogenase (GAPDH; 1:20000, Santa Cruz, sc-47724), histone H3 (H3; 1:1000, Santa Cruz, sc-8654). Membranes were then incubated with peroxidase conjugated secondary antibodies for one hour at room temperature. Detection was performed using Super Signal WestDura. The expression of Ezrin and GAPDH was used as loading control.
Another test has as its system HCT 116 cells. The settings on record: Zeng et al. 2010; cited from earlier work.
The subject of a further test is HDAC. The conditions noted are these: read-out: IC50, HDAC inhibition in treated cells; cells treated with compound; Ying et al. 2008a; cited from earlier work.
In another test the test system is melanoma cell lines. The conditions noted are these: series of melanoma cell lines; Bowers et al. 2008; cited from earlier work.
Test [3] has as its system HCT116 cells. The conditions noted are these: Ying et al. 2008b, read-out: GI50, antigrowth activity; cited from earlier work.
[4] abbreviates: HME control cells, 48 hours, crystal violet, A588.
[5] abbreviates: HCT-116, 48 hours, crystal violet, A588.
[6] abbreviates: MDA-MB-231, MDA-MB231, 48 hours, crystal violet, A588.

`CCCCCCCC(=O)SCC/C=C/[C@@H]1CC(=O)NCc2nc(cs2)C(=O)NC(C)(C)C(=O)N[C@@H](C(C)C)C(=O)O1` [Example 1, S-(E)-4-((7S,10S)-7-isopropyl-4,4-dimethyl-2,5,8,12-tetraoxo-9-oxa-16-thia-3,6,13,18-tetraazabicyclo[13.2.1]octadeca-1(17),15(18)-dien-10-yl)but-3-enyl octanethioate]: the GI50 with HME (setting [4]) was ≥ 600 nM; with HCT-116 (setting [5]), 16 ± 2 nM; in the test on MDA-MB231 (setting [6]), 53 nM. Besides, the “# of Genes 2 Fold-Change in comparison to DMSO control” value in the test on HCT116 cells [1] (6 hr) was determined as 421; with HCT116 cells [1] (24 hr) it was 174. Moreover, in test [2], the “Deacetylase inhibition, dose response of H3 acetylation (FIG. 8B)” value was “slightly more potent deacetylase inhibitors than largazole (L) and SAHA”.
For the molecule `CCCCCCCC(=O)SCC/C=C/[C@@H]1CC(=O)NCc2nc(co2)C(=O)NC(C)(C)C(=O)N[C@@H](C)C(=O)O1` [Example 4, S-(E)-4-((7S,10S)-4,4,7-trimethyl-2,5,8,12-tetraoxo-9,16-dioxa-3,6,13,18-tetraazabicyclo[13.2.1]octadeca-1(17),15(18)-dien-10-yl)but-3-enyl octanethioate], the GI50 with HME (setting [4]) was ≥ 600 nM; in the test on HCT-116 (setting [5]), 17 nM; with MDA-MB231 (setting [6]) it was 53 ± 3 nM.
Take `CCCCCCCC(=O)SCC/C=C/[C@@H]1CC(=O)NCc2nc(cs2)C2=N[C@@](C)(CS2)C(=O)N[C@@H](C(C)C)C(=O)O1` [Largazole]: the GI50 in the test on HME (48 h) was ≥ 600 nM; in the test on HCT-116 (HCT-116, 48 h), 28 nM; with MDA-MB231 (MDA-MB-231, 48 h), 71 ± 8 nM. Further, the entries for the “# of Genes 2 Fold-Change in comparison to DMSO control” value with HCT116 cells [1] (6 hr) and with HCT116 cells [1] (24 hr) were 529 and 566, respectively.
Regarding `CCCCCCCC(=O)SCCC=CC1CC(=O)NCc2nc(cs2)C2=NC(C)(CS2)C(=O)NC(CC(C)C)C(=O)O1` (stereo not shown) [Leu 1], the GI50 in the test with HCT 116 cells was 560 nM.
Regarding `CCCCCCCC(=O)SCCC=CC1CC(=O)NCc2nc(cs2)C2=NC(C)(CS2)C(=O)NC(Cc2ccccc2)C(=O)O1` (stereo not shown) [Phe 1], the GI50 in the test with HCT 116 cells was 260 nM.
As for largazole thiol, the IC50 in the test on HDAC is 209 nM; with melanoma cell lines it was 380 to 2600 nM. The GI50 in the test on HCT116 cells [3] is 38 nM.

By GI50 is commonly meant the concentration giving 50% growth inhibition. Broadly, the IC50 is the concentration at which inhibition is half-maximal.

These data come from patent publication US9422340B2, “Macrocyclic compounds useful as inhibitors of histone deacetylases” (The Regents of the University of Colorado, A Body Corporate, priority 2010, dated 2016).
